Measured values taken from article PMC12299168 (Pharmaceutics, 2025).
Like-named read-outs stand apart in the source and are kept apart here.

Legend:
[1] = system: flare and wheal suppression; settings: children aged 6–11 years; cited from earlier work
[2] = system: porcine liver esterase (PLE); assay: Hydrolysis of prodrug in porcine liver esterase (PLE); format: in vitro ADME; settings: for first-order rate constant (kobs): during 6 h; for half-life at 0.25 mg/mL (LCZ 2HCl Eq.): pig, porcine liver esterase (PLE) solution, 10% DMSO, 37 °C, read-out: T1/2 (time required for 50% degradation of prodrug) (converted)
Experimental: The ester bond cleavage assay was adapted from reference, with minor modifications, and carried out using PLE to evaluate the hydrolytic ratio (n = 3). […] At 0, 1, 2, 4, 6 and 24 h, the aliquot (100 μL) was collected using a 28 G syringe, and then immediately diluted 10-fold with a solvent composed of Acetonitrile:DW = 90:10 (v/v) to stop enzymatic action. The elution was replenished with an equal concentration and volume of fresh esterase solution. The diluted samples were filtered through a double 0.45 μm PTFE syringe filter. The filtrates were analyzed for their prodrug and LCZ content by HPLC to determine the conversion of the prodrug to LCZ.
(§1) Esterase, plasma hydrolysis and chemical stability studies were performed using the HPLC method. The HPLC equipment used was Infinity 1260 (Agilent, CA) fitted with a quaternary pump, an autosampler, a UV detector set at a wavelength of 230 nm and a column compartment maintained at 20 °C. The sample was eluted from a Fortis C18 (150 × 4.6 mm, 5 μm particle size) (Fortis, Neston, UK) analytical column using Acetonitrile:distilled water:sulfuric acid (90:9.6:0.4, v/v). The mobile phase was pumped isocratically at a flow rate of 1 mL/min with a 20 μL injection volume.

[3] = Hydrolysis of prodrugs in rat plasma; format: in vitro ADME; settings: 37 °C, during 6 h
Experimental: First, 100 μL of stock solution was added to 3.9 mL of heparinized rat plasma (n = 3). The samples were incubated at 37 °C in a shaking chamber (100 rpm). At 0, 1, 2, 4, 6 and 24 h, the aliquot (100 μL) was collected, and then immediately diluted 10-fold with a solvent composed of Acetonitrile:DW = 90:10 (v/v) to precipitate the protein. An equal volume of fresh rat plasma was replenished after each sampling. The samples were centrifuged at 5000 rpm for 10 min and the supernatants were filtered through a double 0.45 μm PTFE syringe filter. The filtrates were analyzed for their prodrug and LCZ content by HPLC to determine the conversion of the prodrug to LCZ.
as §1

first-order rate constant (kobs) ([2]; PLE 0.2 units/mL) [h⁻¹] | first-order rate constant (kobs) ([2]; PLE 0.5 units/mL) [h⁻¹] | first-order rate constant (kobs) ([2]; PLE 2.0 units/mL) [h⁻¹] | half-life at 0.25 mg/mL (LCZ 2HCl Eq.) ([2]; PLE 0.2 unit/mL) [h] | half-life at 0.25 mg/mL (LCZ 2HCl Eq.) ([2]; PLE 0.5 unit/mL) [h] | half-life at 0.25 mg/mL (LCZ 2HCl Eq.) ([2]; PLE 2.0 unit/mL) [h] | Structure (SMILES) | EC50 for flare suppression [1] [ng/mL] | EC50 for wheal suppression [1] [ng/mL] | first-order rate constant (kobs) [3] [h⁻¹]
 |  |  |  |  |  | O=C(O)COCCN1CCN([C@H](c2ccccc2)c2ccc(Cl)cc2)CC1 [LCZ, Levocetirizine] | 1.4 ± 0.1 | 16.1 ± 2.2 | 
0.201 | 0.253 | 0.580 | 4 | 3 | ~1 | CCCCCCCCCCOC(=O)COCCN1CCN([C@@H](c2ccccc2)c2ccc(Cl)cc2)CC1 [LCZ-D, Levocetirizine decanoate] |  |  | 0.229
0.127 | 0.165 | 0.498 | 5 | 4 | ~2 | CCCCCCCCCCCCOC(=O)COCCN1CCN([C@@H](c2ccccc2)c2ccc(Cl)cc2)CC1 [LCZ-L, Levocetirizine laurate] |  |  | 0.157
